Assay results: patent US9718817B2, “Aryl and heteroaryl ether compounds as ROR gamma modulators” (Glenmark Pharmaceuticals S.A., priority 2014, dated 2017)

Target: T1, GST-tagged ROR gamma ligand binding domain (LBD) (Homo sapiens, UniProt P51449)
T1 construct: purchased Invitrogen
T1 sequence (P51449 269-508 limits assumed): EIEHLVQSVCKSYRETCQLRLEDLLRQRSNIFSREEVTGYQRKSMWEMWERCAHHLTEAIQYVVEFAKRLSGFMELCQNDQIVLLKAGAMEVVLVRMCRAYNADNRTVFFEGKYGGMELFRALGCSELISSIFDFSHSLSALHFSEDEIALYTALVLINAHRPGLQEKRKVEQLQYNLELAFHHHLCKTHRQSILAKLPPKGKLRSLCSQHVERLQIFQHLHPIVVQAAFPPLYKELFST
Experiment: TR-FRET assay for ROR gamma (LanthaScreen co-activator peptide recruitment)
Type: biochemical
Details: for inhibition at 1 µM: compound 1 μM; for inhibition at 1 µM / inhibition at 10 µM: TR-FRET ratio 520/495, percent of control; for inhibition at 10 µM: compound 10 μM; for IC50: class symbols, from dose response curve
Excerpt: The compounds described herein were screened for ROR gamma modulator activity using the TR-FRET assay by Lantha Screen as described in JBC 2011, 286, 26: 22707-10; and Drug Metabolism and Disposition 2009, 37, 10: 2069-78.
The assay is based on the principle that binding of the agonist to the ROR gamma causes a conformational change around helix 12 in the ligand binding domain, resulting in higher affinity for the co-activator peptide. ROR gamma being constitutively active, the Fluorescein-D22 co-activator peptide used in the assay is recruited in the absence of a ligand. Binding of the co-activator peptide, causes an increase in the TR-FRET signal while binding of an antagonist decreases the recruitment of the co-activator peptide, causing a decrease in the TR-FRET signal compared to control with no compound. The assay was performed using a two-step procedure, pre-incubation step with the compound followed by the detection step on addition of the anti-GST tagged terbium (Tb) and fluorescein tagged fluorophores as the acceptor.
Test compounds or reference compounds such as T0901317 (Calbiochem) were dissolved in dimethylsulfoxide (DMSO) to prepare 10.0 mM stock solutions and diluted to the desired concentration. The final concentration of DMSO in the reaction was 4% (v/v). The assay mixture was prepared by mixing 10 nM of the GST-tagged ROR gamma ligand binding domain (LBD) in the assay buffer containing 25 mM HEPES (pH 7.4), 100 mM NaCl, 5 mM DTT and 0.01% BSA with or without the desired concentration of the compound. The reaction was incubated at 22° C. for 1 hour. The pre-incubation step was terminated by addition of the detection mixture containing 300 nM Fluorescein-D22 co-activator peptide and 10 nM lantha screen Tb-anti GST antibody into the reaction mixture. After shaking for 5 minutes the reaction was further incubated for 1 hour at room temperature and read at 4° C. on an Infinite F500 reader as per the kit instructions (Invitrogen). The inhibition of test compound was calculated based on the TR-FRET ratio of 520/495. The activity was calculated as a percent of control reaction. IC50 values were calculated from dose response curve by nonlinear regression analysis using GraphPad Prism software.
Percentage inhibition at concentrations of 1.0 μM and 10.0 μM are given in the table along with IC50 (nM) details for selected examples.

| Structure (SMILES) | inhibition at 1 µM | inhibition at 10 µM | IC50 |
| --- | --- | --- | --- |
| CCS(=O)(=O)c1ccc(CC(=O)Nc2ccc(OC(C)(C)c3ccc(F)c(F)c3)cc2)cc1 [Example 1, N-(4-{[2-(3,4-Difluorophenyl)propan-2-yl]oxy}phenyl)-2-[4(ethylsulfonyl)phenyl]acetamide] | 47.7% | 74.3% | – |
| CCS(=O)(=O)c1ccc(CC(=O)Nc2ccc(OC(C)(C)c3ccc(F)cc3F)cc2)cc1 [Example 2, N-(4-{[2-(2,4-Difluorophenyl)propan-2-yl]oxy}phenyl)-2-[4-(ethylsulfonyl)phenyl]acetamide] | 66.9% | 78% | – |
| CCS(=O)(=O)c1ccc(CC(=O)Nc2ccc(OC(C)(C)c3ccc(Cl)cc3Cl)cc2)cc1 [Example 3, N-(4-{[2-(2,4-Dichlorophenyl)propan-2-yl]oxy}phenyl)-2-[4-(ethylsulfonyl)phenyl]acetamide] | 81.3% | 83.4% | < 50 nM |
| CCS(=O)(=O)c1ccc(CC(=O)Nc2ccc(OC(C)(C)c3ccc(Cl)c(Cl)c3)cc2)cc1 [Example 4, N-(4-{[2-(3,4-Dichlorophenyl)propan-2-yl]oxy}phenyl)-2-[4-(ethylsulfonyl)phenyl]acetamide] | 80.5% | 86.4% | < 50 nM |
| CCS(=O)(=O)c1ccc(CC(=O)Nc2ccc(OC(C)(C)c3cc(Cl)cc(Cl)c3)cc2)cc1 [Example 5, N-(4-{[2-(3,5-Dichlorophenyl)propan-2-yl]oxy}phenyl)-2-[4-(ethylsulfonyl)phenyl]acetamide] | 58.2% | 66.9% | – |
| CCS(=O)(=O)c1ccc(CC(=O)Nc2ccc(OC(C)(C)c3ccc(Cl)cc3F)cc2)cc1 [Example 6, N-(4-{[2-(4-Chloro-2-fluorophenyl)propan-2-yl]oxy}phenyl)-2-[4-(ethylsulfonyl)phenyl]acetamide] | 77.5% | 83.1% | – |
| CCS(=O)(=O)c1ccc(CC(=O)Nc2ccc(OC(C)(C)c3ccc(Cl)c(F)c3)cc2)cc1 [Example 7, N-{4-[1-(4-Chloro-3-fluoro-phenyl)-1-methyl-ethoxy]-phenyl}-2-(4-ethanesulfonyl-phenyl)-acetamide] | 74.4% | 85.1% | – |
| CCS(=O)(=O)c1ccc(CC(=O)Nc2ccc(OC(C)(C)c3ccc(F)cc3Cl)cc2)cc1 [Example 8, N-(4-{[2-(2-Chloro-4-fluorophenyl)propan-2-yl]oxy}phenyl)-2-[4-(ethylsulfonyl)phenyl]acetamide] | 85% | 87.8% | < 50 nM |
| CCS(=O)(=O)c1ccc(CC(=O)Nc2ccc(OC(C)(C)c3ccc(C(F)(F)F)cc3)cc2)cc1 [Example 9, 2-[4-(Ethylsulfonyl)phenyl]-N-[4-({2-[4-(trifluoromethyl)phenyl]propan-2-yl}oxy)phenyl]acetamide] | 86.5% | 89% | < 50 nM |
| CCS(=O)(=O)c1ccc(CC(=O)Nc2ccc(OC(C)(C)c3ccc(C(F)(F)F)c(F)c3)cc2)cc1 [Example 10, 2-(4-Ethanesulfonyl-phenyl)-N-{4-[1-(3-fluoro-4-trifluoromethyl-phenyl)-1-methyl-ethoxy]-phenyl}-acetamide] | 70.9% | 81.5% | – |
| CCS(=O)(=O)c1ccc(CC(=O)Nc2ccc(OC(C)(C)c3ncc(Cl)cc3Cl)cc2)cc1 [Example 11, N-{4-[1-(3,5-Dichloro-pyridin-2-yl)-1-methyl-ethoxy]-phenyl}-2-(4-ethanesulfonyl-phenyl)-acetamide] | 84.3% | 89% | < 50 nM |
| CCC(CC)(Oc1ccc(NC(=O)Cc2ccc(S(=O)(=O)CC)cc2)cc1)c1ccc(Cl)c(F)c1 [Example 12, N-{4-[1-(4-Chloro-3-fluoro-phenyl)-1-ethyl-propoxy]-phenyl}-2-(4-ethanesulfonyl-phenyl)-acetamide] | 73.9% | 85.4% | 50 to 100 nM |
| CCC(CC)(Oc1ccc(NC(=O)Cc2ccc(S(=O)(=O)CC)cc2)cc1)c1ccc(F)cc1F [Example 13, N-{4-[1-(2,4-Difluoro-phenyl)-1-ethyl-propoxy]-phenyl}-2-(4-ethanesulfonyl-phenyl)-acetamide] | 56.2% | 68.8% | – |
| CCn1c(C(C)(C)Oc2ccc(NC(=O)Cc3ccc(S(=O)(=O)CC)cc3)cc2)nc2ccc(F)cc21 [Example 14, N-(4-{[2-(1-ethyl-6-fluoro-1H-benzimidazol-2-yl)propan-2-yl]oxy}phenyl)-2-[4-(ethylsulfonyl)phenyl]acetamide] | 88.9% | 93.3% | < 50 nM |
| CCn1c(C(C)(C)Oc2ccc(NC(=O)Cc3ccc(S(=O)(=O)CC)cc3)cc2)nc2cc(F)ccc21 [Example 15, 2-(4-Ethanesulfonyl-phenyl)-N-{4-[1-(1-ethyl-5-fluoro-1H-benzoimidazol-2-yl)-1-methyl-ethoxy]-phenyl}-acetamide] | 83% | 85.2% | < 50 nM |
| CCn1c(C(C)(C)Oc2ccc(NC(=O)Cc3ccc(S(=O)(=O)CC)cc3)cc2)nc2cc(Cl)ccc21 [Example 16, N-(4-{[2-(5-Chloro-1-ethyl-1H-benzimidazol-2-yl)propan-2-yl]oxy}phenyl)-2-[4-(ethylsulfonyl)phenyl]acetamide] | 88.6% | 94.3% | < 50 nM |
| CCn1c(C(C)(C)Oc2ccc(NC(=O)Cc3ccc(S(=O)(=O)CC)cc3)cc2)nc2ccc(Cl)cc21 [Example 17, N-(4-{[2-(6-Chloro-1-ethyl-1H-benzimidazol-2-yl)propan-2-yl]oxy}phenyl)-2-[4-(ethylsulfonyl)phenyl]acetamide] | 88.7% | 94.3% | < 50 nM |
| CCS(=O)(=O)c1ccc(CC(=O)Nc2ccc(OC(C)(C)c3nc4ccc(Cl)cc4n3C)cc2)cc1 [Example 18, N-{4-[1-(6-Chloro-1-methyl-1H-benzoimidazol-2-yl)-1-methyl-ethoxy]-phenyl}-2-(4-ethanesulfonyl-phenyl)-acetamide] | 78.6% | 91% | > 100 nM |
| CCn1c(C(C)(C)Oc2ccc(NC(=O)Cc3ccc(S(=O)(=O)CC)cc3)cc2)nc2cccc(Cl)c21 [Example 19, N-(4-{[2-(7-Chloro-1-ethyl-1H-benzimidazol-2-yl)propan-2-yl]oxy}phenyl)-2-[4-(ethylsulfonyl)phenyl]acetamide] | 85.5% | 88.9% | 50 to 100 nM |
| CCS(=O)(=O)c1ccc(CC(=O)Nc2ccc(OC(C)(C)c3nc4cc(F)ccc4n3C(C)C)cc2)cc1 [Example 20, 2-(4-Ethanesulfonyl-phenyl)-N-{4-[1-(5-fluoro-1-isopropyl-1H-benzoimidazol-2-yl)-1-methyl-ethoxy]-phenyl}-acetamide] | 79.8% | 85.2% | > 100 nM |
| CCn1c(C(F)(F)Oc2ccc(NC(=O)Cc3ccc(S(=O)(=O)CC)cc3)cc2)nc2cc(Cl)ccc21 [Example 22, N-{4-[(5-Chloro-1-ethyl-1H-benzoimidazol-2-yl)-difluoro-methoxy]-phenyl}-2-(4-ethanesulfonyl-phenyl)-acetamide] | 74.4% | 82.8% | – |
| CCn1c(C2(Oc3ccc(NC(=O)Cc4ccc(S(=O)(=O)CC)cc4)cc3)CC2)nc2ccc(Cl)cc21 [Example 23, N-(4-{[1-(6-Chloro-1-ethyl-1H-benzimidazol-2-yl)cyclopropyl]oxy}phenyl)-2-[4-(ethylsulfonyl)phenyl]acetamide] | 69.6% | 86% | > 100 nM |
| CCn1c(C2(Oc3ccc(NC(=O)Cc4ccc(S(=O)(=O)CC)cc4)cc3)CC2)nc2cc(Cl)ccc21 [Example 24, N-{4-[1-(5-Chloro-1-ethyl-1H-benzoimidazol-2-yl)-cyclopropoxy]-phenyl}-2-(4-ethanesulfonyl-phenyl)-acetamide] | 65.7% | 85.6% | > 100 nM |
